{
  "source": "patent US8188064B2",
  "about": "“Vitamin D analogs for obesity prevention and treatment” (Wisconsin Alumni Research Foundation, priority 2003, dated 2012)",
  "key": {"[1]": {"system": "Human promyelocytic leukemia (HL60) cells", "test": "HL-60 differentiation (nitro blue tetrazolium reduction)", "assay_type": "cell-based", "conditions": "concentration 1×10^−7 M", "method_in_brief": "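Four-day drug treatment of cells grown in RPMI-1640/10% FBS at 37 °C, 5% CO2, ethanol ≦0.2%; then NBT reduction, percent of 200 cells with black-blue formazan.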"}, "[2]": {"test": "Intestinal calcium transport (everted gut sac)", "assay_type": "in vivo", "conditions": "result in words, vitamin D deficient rat model, compared to 1α,25(OH)2D3", "method_in_brief": "(§1)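 Male weanling Sprague-Dawley rats, vitamin D-deficient, cycled through 0.47% and 0.02% Ca diets, dosed during the last 0.02% Ca week. Four ip doses ~24 h apart; serum calcium measured 24 h after last dose. First 10 cm of intestine taken for everted gut sac calcium transport.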"}, "[3]": {"test": "Bone calcium mobilization (serum calcium on low calcium diet)", "assay_type": "in vivo, rat", "conditions": "result in words, vitamin D deficient rat model, compared to 1α,25(OH)2D3", "method_in_brief": "as §1"}, "[4]": {"test": "Hypercalcemia / serum calcium analysis", "assay_type": "in vivo, rat", "conditions": "normal vitamin D sufficient rats, very high oral doses"}, "[5]": {"system": "3T3-L1 cells", "test": "Inhibition of 3T3-L1 differentiation into mature adipocytes (Oil-Red-O staining)", "assay_type": "cell-based, murine", "conditions": "for inhibition of differentiation of 3T3-L1 cells into mature adipocytes (Oil-Red-O staining): result in words, MDI-treated cells, staining at day 10"}, "[6]": {"system": "SCD-1 mRNA", "test": "Inhibition of SCD-1 mRNA induction in 3T3-L1 cells (RT-PCR)", "assay_type": "cell-based, murine", "conditions": "for EC50: Mus musculus, 3T3-L1, 96 h, read-out: EC50 for inhibition of murine 3T3-L1 expression of SCD-1 mRNA; for inhibition of SCD-1 mRNA induction: result in words, MDI-treated 3T3-L1 cells", "text": "Chomczynski, P. et al., Anal. […] NO: 4))."}, "[7]": {"system": "PPARγ2 mRNA", "test": "PPARγ2 mRNA induction by MDI in 3T3-L1 cells (RT-PCR)", "assay_type": "cell-based, murine", "conditions": "compound present at 1×10^−8 M", "procedure": "RT-PCR was carried out as described above with 0.5 μM each primer, 2 mM MgCl2, and 1×SYBR Green master mix."}, "[8]": {"system": "C/EBPα mRNA", "test": "C/EBPα mRNA induction by MDI in 3T3-L1 cells (RT-PCR)", "assay_type": "cell-based, murine", "conditions": "compound present at 1×10^−8 M", "procedure": "Analysis of C/EBPα was determined by PCR using murine primers (upstream=CGA GTA GGG GGA GCA AAA A (SEQ ID NO: 7); downstream=GCA AAA AGC MG GGA TTA GGA G (SEQ ID NO: 8)). RT-PCR was carried out as described above with 0.5 μM each primer, 2 mM MgCl2, and 1×SYBR Green master mix. The murine C/EBPα primers have a 60° C. annealing temperature and a 12 second extension time."}, "[9]": {"biological_target": "T1, full-length recombinant rat vitamin D receptor (Rattus norvegicus, UniProt P13053)", "T1 construct": "Full-length recombinant rat receptor was expressed in E. coli; histidine tag (C); made in house; host or cells: E. coli BL21(DE3) Codon Plus RIL", "T1 sequence (P13053 1-423)": "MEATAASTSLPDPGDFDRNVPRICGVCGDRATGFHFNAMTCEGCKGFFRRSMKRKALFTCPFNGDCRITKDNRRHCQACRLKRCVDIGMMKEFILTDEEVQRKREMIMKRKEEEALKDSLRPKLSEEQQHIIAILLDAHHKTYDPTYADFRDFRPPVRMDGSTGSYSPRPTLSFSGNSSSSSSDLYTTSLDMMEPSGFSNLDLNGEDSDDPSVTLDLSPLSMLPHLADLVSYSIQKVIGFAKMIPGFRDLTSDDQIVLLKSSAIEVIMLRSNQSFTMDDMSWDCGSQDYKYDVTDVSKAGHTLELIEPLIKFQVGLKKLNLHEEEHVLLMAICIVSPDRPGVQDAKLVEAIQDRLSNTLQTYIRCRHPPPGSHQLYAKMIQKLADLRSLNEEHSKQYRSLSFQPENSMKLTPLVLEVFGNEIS", "test": "Vitamin D receptor binding (competition with 3H-1,25(OH)2D3)", "conditions": "result in words, competition for tritiated hormone binding", "method_in_brief": "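Purified His-tagged receptor from E. coli, diluted in TEDK50 (pH 7.4, 5 mM DTT, 150 mM KCl) with 0.1% Chaps, set so ≤20% of radioligand bound. Competition against 1 nM final 3H-1,25(OH)2D3, ethanol ≤10%, overnight on ice; bound ligand collected on hydroxylapatite, washed, counted by scintillation.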"}},
  "note": "“Also recorded” adds a separate entry of the source. Where two headings read alike, the source gives them in different places.",
  "data": [
    {"smiles": "C=C1/C(=C\\C=C2/CCC[C@]3(C)[C@@H]([C@H](C)CCCC(C)(C)O)CC[C@@H]23)C[C@@H](O)C[C@@H]1O", "note": "[1α,25(OH)2D3, 1α,25-dihydroxyvitamin D3, reference compound]", "values": [
      {"measurement": "cells induced to differentiate in the NBT assay", "setting": "[1]", "value": "~90", "unit": "%"},
      {"measurement": "intestinal calcium transport activity", "setting": "[2]; listed as calcitriol", "value": "quite potent; also recorded: active"},
      {"measurement": "bone calcium mobilization activity", "setting": "[3]; listed as calcitriol", "value": "quite potent; also recorded: active"},
      {"measurement": "increase in serum calcium", "setting": "[4]", "value": "frank hypercalcemia and even death"},
      {"measurement": "inhibition of differentiation of 3T3-L1 cells into mature adipocytes (Oil-Red-O staining)", "setting": "[5]", "value": "inhibit; also recorded: inhibition"},
      {"measurement": "EC50", "setting": "[6]", "value": 0.2, "unit": "nM"},
      {"measurement": "inhibition of SCD-1 mRNA induction", "setting": "[6]", "value": "inhibition"},
      {"measurement": "PPARγ mRNA induction by MDI", "setting": "[7]", "value": "not induced"},
      {"measurement": "C/EBPα mRNA induction by MDI", "setting": "[8]", "value": "not induced"}
    ]},
    {"smiles": "C=C1[C@H](O)CC(=C/C=C2\\CCC[C@]3(C)[C@@H]([C@@H](C)CC)CC[C@@H]23)C[C@H]1O", "note": "[2-MbisP]", "values": [
      {"measurement": "binding to the vitamin D receptor, compared to 1α,25(OH)2D3", "setting": "[9]; listed as 1α-(20S)2-MbisP", "value": "nearly the same affinity"},
      {"measurement": "binding to the vitamin D receptor, compared to 1α,25(OH)2D3", "setting": "[9]; listed as (20S)2-MbisP", "value": "as or nearly effective as calcitriol"},
      {"measurement": "intestinal calcium transport activity", "setting": "[2]", "value": "little, if any, activity"},
      {"measurement": "bone calcium mobilization activity", "setting": "[3]", "value": "little, if any, activity"},
      {"measurement": "increase in serum calcium", "setting": "[4]", "value": "without producing an increase in serum calcium"},
      {"measurement": "difference in potency from the native hormone in inhibiting differentiation", "setting": "[5]; MDI-induced 3T3-L1 cells", "value": "< 0.5", "unit": "log unit"},
      {"measurement": "inhibition of differentiation of 3T3-L1 cells into mature adipocytes (Oil-Red-O staining)", "setting": "[5]", "value": "inhibit; also recorded: effective"},
      {"measurement": "inhibition of differentiation of 3T3-L1 cells into mature adipocytes (Oil-Red-O staining)", "setting": "[5]; listed as 1α-(20S)2-MbisP", "value": "nearly equipotent"},
      {"measurement": "inhibition of differentiation of 3T3-L1 cells into mature adipocytes (Oil-Red-O staining)", "setting": "[5]; listed as (1α,20S)2MbisP", "value": "inhibition"},
      {"measurement": "inhibition of differentiation of 3T3-L1 cells into mature adipocytes (Oil-Red-O staining)", "setting": "[5]; listed as (20S)2-MbisP", "value": "nearly as potent as the native hormone"},
      {"measurement": "inhibition of differentiation of 3T3-L1 cells into mature adipocytes (Oil-Red-O staining)", "setting": "[5]; listed as (20S)2M-bisP", "value": "inhibition"},
      {"measurement": "inhibition of differentiation of 3T3-L1 cells into mature adipocytes (Oil-Red-O staining)", "setting": "[5]; listed as (20S)2MbisP", "value": "inhibition"},
      {"measurement": "inhibition of differentiation of MDI-treated 3T3-L1 cells (oil-red-O staining)", "setting": "[5]; tested at 1×10^−8.5 M", "value": "active"},
      {"measurement": "EC50", "setting": "[6]; SCD-1 mRNA at 4 days", "value": "~0.54", "unit": "nM"},
      {"measurement": "times less potent than the native hormone 1,25-(OH)2D3", "setting": "[6]; inhibition of SCD-1 mRNA induction", "value": "2 to 3", "unit": "times"},
      {"measurement": "inhibition of SCD-1 mRNA induction", "setting": "[6]; listed as (1α,20S)2MbisP", "value": "inhibition"},
      {"measurement": "inhibition of SCD-1 mRNA induction", "setting": "[6]; listed as (20S)2-MbisP", "value": "nearly as potent as the native hormone"},
      {"measurement": "inhibition of SCD1 mRNA induction", "setting": "[6]; tested at 1×10^−8.5 M", "value": "active"},
      {"measurement": "PPARγ mRNA induction by MDI", "setting": "[7]", "value": "not induced"},
      {"measurement": "C/EBPα mRNA induction by MDI", "setting": "[8]", "value": "not induced"}
    ]}
  ]
}
